Laboratory results reported in patent US10821115B2, “Compounds that inhibit Mcl-1 protein” (priority 2017, dated 2020).
Where two headings read alike, the source gives them in different places.

Tested on: human multiple myeloma cell line, OPM-2
Assay: Cell viability assay (OPM-2 10 FBS), CellTiter-Glo
Type: cell-based
Summary of the method: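 Cells were seeded at 3000 cells/well in RPMI 1640 with 10% FBS and exposed to serially diluted compounds for 16 h at 37 °C, 5% CO2.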

[1] = Homo sapiens, OPM-2, 16 h, read-out: OPM-2 10% FBS IC50 IP, OPM-2 cells, 10% FBS, 16 h incubation
[2] = read-out: OPM-2 10% FBS IC50 IP, OPM-2 cells, 10% FBS, 16 h, CellTiter-Glo
[3] = Homo sapiens, OPM-2, 16 h, read-out: OPM-2 10% FBS IC50 IP, OPM-2 cells, 10% FBS, 16 h, CellTiter-Glo

| SMILES | IC50 [2] | also measured |
| --- | --- | --- |
| CCO[C@@]1(CN2CCN3CCOC[C@@H]3C2)/C=C/C[C@H](C)[C@@H](CCOC)S(=O)(=O)NC(=O)c2ccc3c(n2)N(C[C@@H]2CC[C@H]21)C[C@@]1(CCCc2cc(Cl)ccc21)CO3 [Example 369, (1S,3′R,6′R,7′S,8′E,11′S,12′R)-6-chloro-7′-ethoxy-7′-((9aS)-hexahydropyrazino[2,1-c][1,4]oxazin-8(1H)-ylmethyl)-12′-(2-methoxyethyl)-11′-methyl-3,4-dihydro-2H,15′H-spiro[naphthalene-1,22′-[20]oxa[13]thia[1,14,25]triazatetracyclo [14.7.2.0~3,6~.0~19,24~]pentacosa[8,16,18,24]tetraen]-15′-one 13′,13′-dioxide] | – | IC50 [1]: 71 nM |
| CCO[C@@]1(CN2CCN3CCCC[C@@H]3C2)/C=C/C[C@H](C)[C@@H](CCOC)S(=O)(=O)NC(=O)c2ccc3c(n2)N(C[C@@H]2CC[C@H]21)C[C@@]1(CCCc2cc(Cl)ccc21)CO3 [Example 370, (1S,3′R,6′R,7′S,8′E,11′S,12′R)-6-chloro-7′-ethoxy-12′-(2-methoxyethyl)-11′-methyl-7′-((9aR)-octahydro-2H-pyrido[1,2-a]pyrazin-2-ylmethyl)-3,4-dihydro-2H,15′H-spiro[naphthalene-1,22′-[20]oxa[13]thia[1,14,25]triazatetracyclo [14.7.2.0~3,6~.0~19,24~]pentacosa[8,16,18,24]tetraen]-15′-one 13′,13′-dioxide] | – | IC50 [1]: 369 nM |
| CCO[C@]1(CN2CCN3CCOC[C@@H]3C2)CCC[C@H](C)[C@@H](CCOC)S(=O)(=O)NC(=O)c2ccc3c(c2)N(C[C@@H]2CC[C@H]21)C[C@@]1(CCCc2ccccc21)CO3 [Example 517, (1S,3′R,6′R,7′R,11′S,12′R)-7′-ethoxy-7′-((9aS)-hexahydropyrazino[2,1-c][1,4]oxazin-8(1H)-ylmethyl)-12′-(2-methoxyethyl)-11′-methyl-3,4-dihydro-2H, 15′H-spiro[naphthalene-1,22′-[20]oxa[13]thia[1,14]diazatetracyclo[14.7.2.0-3,6˜.0˜19,24˜]pentacosa[16,18,24]trien]-15′-one 13′,13′-dioxide] | – | IC50 (read-out: OPM-2 10% FBS IC50 IP, OPM-2 cells, 10% FBS, 16 h incubation): 252 nM |
| CO[C@@]1(CC(=O)N(C)C)/C=C/C[C@H](C)[C@@H](C)S(=O)(=O)NC(=O)c2ccc3c(c2)N(C[C@@H]2CC[C@H]21)C[C@@]1(CCCc2cc(Cl)ccc21)CO3 [Example 100135, 2-((1S,3′R,6′R,7′S,8′E,11′S,12′R)-6-chloro-7′-methoxy-11′,12′-dimethyl-13′,13′-dioxido-15′-oxo-3,4-dihydro-2H-spiro[naphthalene-1,22′-[20]oxa[13]thia[1,14]diazatetracyclo [14.7.2.0~3,6~.0~19,24~]pentacosa[8,16,18,24]tetraen]-7′-yl)-N,N-dimethylacetamide] | 161 nM | – |
| C[C@@H]1[C@@H](C)CCC[C@@](O)(CC(=O)N2CCC2)[C@@H]2CC[C@H]2CN2C[C@@]3(CCCc4cc(Cl)ccc43)COc3ccc(cc32)C(=O)NS1(=O)=O [Example 100144, (1S,3′R,6′R,7′R,11′S,12′R)-7′-(2-(1-azetidinyl)-2-oxoethyl)-6-chloro-7′-hydroxy-11′,12′-dimethyl-3,4-dihydro-2H,15′H-spiro[naphthalene-1,22′-[20]oxa[13]thia[1,14]diazatetracyclo [14.7.2.0~3,6~.0~19,24~]pentacosa[16,18,24]trien]-15′-one 13′,13′-dioxide] | 208 nM | – |
| C[C@@H]1[C@@H](C)C/C=C/[C@@](O)(C#C[Si](C)(C)C)[C@@H]2CC[C@H]2CN2C[C@@]3(CCCc4cc(Cl)ccc43)COc3ccc(cc32)C(=O)NS1(=O)=O [Example 100240, (1S,3′R,6′R,7′S,8′E,11′S,12′R)-6-chloro-7′-hydroxy-11′,12′-dimethyl-7′-((trimethylsilyl)ethynyl)-3,4-dihydro-2H,15′H-spiro[naphthalene-1,22′-[20]oxa[13]thia[1,14]diazatetracyclo [14.7.2.0~3,6~.0~19,24~]pentacosa[8,16,18,24]tetraen]-15′-one 13′,13′-dioxide] | 266 nM | – |
| C[C@@H]1[C@@H](C)C/C=C/[C@@](O)(C#C[Si](C)(C)C)[C@@H]2CC[C@H]2CN2C[C@@]3(CCCc4cc(Cl)ccc43)COc3ccc(cc32)C(=O)NS1(=O)=O [Example 100243, (1S,3′R,6′R,7′S,8′E,11′S,12′R)-6-chloro-7′-hydroxy-11′,12′-dimethyl-7′-((trimethylsilyl)ethynyl)-3,4-dihydro-2H,15′H-spiro[naphthalene-1,22′-[20]oxa[13]thia[1,14]diazatetracyclo [14.7.2.0~3,6~.0~19,24~]pentacosa[8,16,18,24]tetraen]-15′-one 13′,13′-dioxide] | 8670 nM | – |
| CO[C@]1(c2cccnc2F)/C=C/C[C@H](C)[C@@H](C)S(=O)(=O)NC(=O)c2ccc3c(c2)N(C[C@@H]2CC[C@H]21)C[C@@]1(CCCc2cc(Cl)ccc21)CO3 [Example 100324, (1S,3′R,6′R,7′R,8′E,11′S,12′R)-6-chloro-7′-(2-fluoro-3-pyridinyl)-7′-methoxy-11′,12′-dimethyl-3,4-dihydro-2H,15′H-spiro[naphthalene-1,22′-[20]oxa[13]thia[1,14]diazatetracyclo [14.7.2.0~3,6~.0~19,24~]pentacosa[8,16,18,24]tetraen]-15′-one 13′,13′-dioxide] | 1170 nM | – |
| CO[C@]1(c2cccnc2F)/C=C/C[C@H](C)[C@@H](C)S(=O)(=O)NC(=O)c2ccc3c(c2)N(C[C@@H]2CC[C@H]21)C[C@@]1(CCCc2cc(Cl)ccc21)CO3 [Example 100325, (1S,3′R,6′R,7′R,8′E,11′S,12′R)-6-chloro-7′-(2-fluoro-3-pyridinyl)-7′-methoxy-11′,12′-dimethyl-3,4-dihydro-2H,15′H-spiro[naphthalene-1,22′-[20]oxa[13]thia[1,14]diazatetracyclo [14.7.2.0~3,6~.0~19,24~]pentacosa[8,16,18,24]tetraen]-15′-one 13′,13′-dioxide] | 482 nM | – |
| CO[C@]1(c2cccc(F)n2)/C=C/C[C@H](C)[C@@H](C)S(=O)(=O)NC(=O)c2ccc3c(c2)N(C[C@@H]2CC[C@H]21)C[C@@]1(CCCc2cc(Cl)ccc21)CO3 [Example 100340, (1S,3′R,6′R,7′R,8′E,11′S,12′R)-6-chloro-7′-(6-fluoro-2-pyridinyl)-7′-methoxy-11′,12′-dimethyl-3,4-dihydro-2H,15′H-spiro[naphthalene-1,22′-[20]oxa[13]thia[1,14]diazatetracyclo [14.7.2.0~3,6~.0~19,24~]pentacosa[8,16,18,24]tetraen]-15′-one 13′,13′-dioxide] | – | IC50 [3]: 308 nM |
| C[C@@H]1[C@@H](C)CCC[C@@](CO)(CN2CCOCC2)[C@@H]2CC[C@H]2CN2C[C@@]3(CCCc4cc(Cl)ccc43)COc3ccc(cc32)C(=O)NS1(=O)=O [Example 100341, (1S,3′R,6′R,7′S,11′S,12′R)-6-chloro-7′-(hydroxymethyl)-11′,12′-dimethyl-7′-(4-morpholinylmethyl)-3,4-dihydro-2H,15′H-spiro[naphthalene-1,22′-[20]oxa[13]thia[1,14]diazatetracyclo [14.7.2.0~3,6~.0~19,24~]pentacosa[16,18,24]trien]-15′-one 13′,13′-dioxide] | – | IC50 [3]: 1940 nM |
